# Reference: PMC10835127, “Viruses traverse the human proteome through peptide interfaces that can be biomimetically leveraged for drug discovery” (Proceedings of the National Academy of Sciences of the …, 2024)
# Tests used:
# [1] = Microsomal stability, mouse liver microsomes; type: in vitro ADME; settings: male, CD-1, mouse, pH 7.4; murine liver microsomes; read-out: CLint mLM
# Experimental: Tested compounds (1 μM) were incubated with pooled human liver microsomes (Xenotech; pooled male and female) and pooled mouse liver microsomes (Xenotech; male CD-1 mice).
# Microsomes (final protein concentrations of 0.25 and 0.5 mg/ml, 0.1 M phosphate buffer pH 7.4) containing tested compound (final substrate concentration 1 μM; final DMSO concentration 0.25 %) were preincubated at 37 °C prior to the addition of NADPH (final concentration 1 mM) to initiate the reaction. The final incubation volume was 200 μl. 3 species-specific control compounds were included with each species. At 5 time points (0, 5, 10, 20, and 40 min), reactions were stopped by transferring 50 μl of the incubation mixture into 0.5 μM carbamazepine in acetonitrile. Tested compound concentrations were analyzed by LC-MS/MS and the resulting data were used to determine the half-life and intrinsic clearance of the compound in each
# [2] = Plasma protein binding by equilibrium dialysis, murine; type: in vitro ADME; settings: mouse, read-out: PPB (% bound)
# Experimental: The free and bound fractions of the tested compounds in mouse and human plasma were determined by equilibrium dialysis using a 96-well Teflon dialysis unit (HTDialysis plate complete unit, HT Dialysis, USA). The HTDialysis plate complete unit consists of a 96-well plate with wells vertically bisected by a semipermeable membrane (membranes strips 12 to 14 kDa) creating two chambers. A 125 μL aliquot of plasma containing tested compound at 10 μM was placed on one side and 125 μL of Dulbecco‘s phosphate buffered saline (D-PBS) on the other. The plate was incubated at 37 °C for 6 hr under gentle agitation. Then, samples from both plasma and buffer compartment were analyzed by a LC-MS/MS method to measure the free fraction and the bound fraction to the plasma proteins. […]
# MitoNEET = molecular target: T1, MitoNEET (Homo sapiens, UniProt Q9NZ45); assay: In vitro NEET [2Fe-2S] cluster release, MitoNEET; type: biochemical; settings: recombinant MitoNEET, 37 °C, absorbance 460 nm
# T1 construct: MitoNEET ([60]) and NAF-1 ([61]) cytosolic domains and MiNT ([62]) were purified from E. coli as previously published; made in house; host or cells: E. coli
# T1 sequence (Q9NZ45 32-108 limits assumed): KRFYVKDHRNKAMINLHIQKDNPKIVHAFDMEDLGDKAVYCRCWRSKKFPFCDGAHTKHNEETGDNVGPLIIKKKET
# Experimental: MitoNEET ([60]) and NAF-1 ([61]) cytosolic domains and MiNT ([62]) were purified from E. coli as previously published. Experiments were performed in 96-well plates at 37 °C with […] of Fe-S cluster in a buffer composed of 50 mM Tris-HCl pH 7 and 100 mM NaCl. dEF3122 was dissolved in dimethyl sulfoxide (DMSO) at 10 mM. CPEP31 was dissolved in PBS at 10 mM. After 20 min of incubation of the protein with the molecule, NEET cluster release was followed by measuring the absorbance at 460 and 800 nm over time using a plate reader (SpectraMax ID3). The absorbance at 460 nm was corrected for the variation of the baseline (absorbance at 800 nm) over time and normalized at 1 at the beginning of the kinetics.
# [3] = test system: diet-induced obese model of NASH; assay: NASH mouse model (AMLN diet-induced obese); type: in vivo, C57BL/6JRj mice; settings: oral, 8 wk
# Experimental: Fig. 6. Effect of the lead compound in a diet-induced obese model of NASH. Mice fed with a high fat, high fructose, and cholesterol supplemented diet for 38 wk were then treated in the last 8 wk with vehicle, dEF3122, or OCA (obeticholic acid) at indicated concentrations (n = 12 animals per group). (A and B) Histopathological mean score changes between the beginning and end of the treatment for liver portal inflammation (A) and liver portal fibrosis (B) are shown with representative stained liver sections of hematoxylin and eosin (H&E) and picrosirius red stains, respectively. (C–E) (C) Areas of kidney fibrosis at the end of the treatment are shown as % of the total area of the selected fields with representative sections of the kidney stained with picrosirius red. (D) % CD3 and (E) % F4/80 positive areas in kidneys with representative sections of CD3 and F4/80 immunostainings. *P < 0.05, **P < 0.01, and ***P < 0.001 from the T test with a preliminary nonsignificant Shapiro–Wilk test or from Wilcoxon signed–rank test otherwise.
# Five-week-old male C57BL/6JRj mice were fed either chow diet or AMLN diet (40% total fat kcal of which 18.5% were trans-fat kcal, 20% fructose, and 2% cholesterol). This diet was maintained for 30 wk prior to study initiation. Three weeks prior to study initiation, liver biopsies were taken, and animals with steatosis grade <2 and fibrosis stage <1 were excluded from the study. Prior to the first administration of the test compound, stratified randomization of mice into treatment groups was performed according to collagen 1a1 (IHC) morphometry from the week 3 biopsies. Each treatment group consisted of 12 mice. For a total of 8 wk, compound dEF3122 was administered orally, twice daily at a concentration of 7 mg/kg or 20 mg/kg. OCA was administered orally, once daily at a concentration of 7 mg/kg. Animals were killed at the end of the treatment, and livers and kidneys were collected. […]
# NASH histopathology and immunochemistry
# Livers were fixed in 10 % neutral buffered formalin and paraffin-embedded; and sections were stained with H&E and picrosirius red to analyze their morphology. Histopathological analysis was performed by a pathologist blinded to the study. Fibrosis was evaluated by quantification of the picrosirius red positive areas. Inflammation was graded by counting the H&E positive inflammatory foci per field.
# Kidneys were fixed in 4 % PFA and paraffin embedded. 4-μm sections were stained with picrosirius red. Images were acquired using a digital slide scanner (Nanozoomer S210 Digital Slide Scanner, Hamamatsu). Renal lesions were blindly examined by a renal pathologist. The extent of interstitial fibrosis was quantified using Image J software (NIH) on Sirius red scanned colored sections. In short, at least 20 random selected fields (original magnification, ×200) across the kidney cortex were analyzed per each kidney section, and the results were expressed as percentages of the total area of the selected fields.
# For immunohistochemistry, 4-µm sections of paraffin-embedded kidneys were submitted for appropriate antigen retrieval by high pressure heating in a solution of Tris EDTA Tween or in a citrate solution. Then, sections were then incubated overnight at 4°C with the following antibodies: rabbit monoclonal anti-CD3 (Abcam, 1:100) and rat monoclonal anti- F4/80 (Biorad, 1:100). After washing, sections were incubated with appropriate amplification secondary antibody: biotin-coupled anti-rabbit (GE Healthcare) for CD3 and biotin-coupled anti-rat (Vector Laboratories) for F4/80, and then incubated with streptavidin coupled HRP (Southern). At the end, DAB (DAKO) staining was used to detect HRP. For quantification of CD3+ and F4/80+ renal cells, the degrees of cellular infiltrate were automatically quantified using ImageJ software (NIH) and expressed as a percentage of the surface area of the positive staining per field, in at least 10 random fields perp
# influenza A H1N1 virus = assay: microbe, parasite or virus in culture; settings: H1N1, A549, read-out: Neuraminidase activity assay IC50
# [4] = dEF3122 twice daily 7 or 20 mg/kg, OCA once daily 7 mg/kg, vs vehicle
smiles,measurement,setting,value
O=C(Nc1scc(C2CCc3ccccc3C2)c1C(=O)O)c1ccccc1 (stereo not drawn) [dEF3122],microsomal CLint at 1 µM,[1],24 µL/min/mg
same,"fraction unbound at 6 h, 10 µM",[2],0.001
same,interaction by [2Fe-2S] cluster release assay,MitoNEET,validated the interaction
same,kidney interstitial lymphocytes infiltration (CD3),[3]; twice daily 7 or 20 mg/kg,attenuated interstitial lymphocytes infiltration
same,kidney macrophages infiltration (F4/80),[3]; twice daily 7 or 20 mg/kg,but not macrophages infiltration
same,kidney fibrosis,"[3]; twice daily 7 or 20 mg/kg, picrosirius red",dramatically reduced fibrosis
same,liver portal fibrosis,[3]; [4],resolved portal inflammation and fibrosis
same,liver portal inflammation,[3]; [4],resolved portal inflammation
same,IC50,influenza A H1N1 virus,3 nM
